Source: patent US9920074B2 (ACEA BIOSCIENCES INC., priority 2013, dated 2018)

Columns and labels:
Format in all cases: cell-based
[1] = target: T1, Btk (Tyr223) phosphorylation in Ramos cells (Homo sapiens, UniProt Q06187); experiment: Btk Tyr223 phosphorylation inhibition, western blotting assay (Example 72); conditions: Btk Tyr223 phosphorylation, 45 min, 12 μg/mL IgM, read-out: BTK Inhibition
T1 construct: endogenous in cells; host or cells: Ramos cells (ATCC)
Description: Ramos cell line was obtained from the American Type Culture Collection and was maintained at 37° C. with 5% CO2, in media supplemented with 10% fetal bovine serum, penicillin (100 units/mL) and streptomycin (100 μg/mL), Goat F(ab′)2 Anti-Human IgM-UNLB was obtained from SouthernBiotech.
(§1) Ramos cells were treated with compounds at indicated doses for 45 min at room temperature, followed by stimulation of 12 μg/mL of IgM for 30 min, and then lysed. Western blots were performed on the cell lysate using Phospho-Btk (Tyr223), Phospho-Btk (Tyr551), Btk, Phospho-PLCγ2 (Tyr1217), PLCγ2, Phospho-p44/42 MAPK (Erk1/2) (Thr202/Tyr204) and p44/42 MAPK (Erk1/2) antibodies (Cell Signaling Technology). The density of blotting band was acquired using ImageJ software, and the IC50 of Btk (Tyr223) phosphorylation was fitted using a non-linear regression model by GraphPad Prism version 4.0.

[2] = target: T1, Btk (Tyr223) phosphorylation in Ramos cells; experiment: Western blotting assay for Btk (Example 73); conditions: 45 min, 6 μg/mL anti-IgM, read-out: Btk Inhibition
Description: (§2) All cell lines were obtained from the American Type Culture Collection and were maintained at 37° C. with 5% CO2. Ramos cell line was maintained in media supplemented with 10% fetal bovine serum, penicillin (100 units/mL) and streptomycin (100 μg/mL). NK-92 cell line was maintained in media supplemented with 10% fetal bovine serum and 10% horse serum, penicillin (100 units/mL) and streptomycin (100 μg/mL), IL-2 10 ng/mL. Goat F(ab′)2 Anti-Human IgM-UNLB was obtained from SouthernBiotech. IL-2 was obtained from Peprotech.
as §1, with “of 6” for “of 12”, “of anti-IgM” for “of IgM”, “GraphPad Prism.” for “GraphPad Prism version 4.0.”

[3] = test system: Stat5 phosphorylation in NK-92 cells; experiment: Western blotting assay for Stat5; conditions: NK92, 1 hour, IL-2 stimulation, read-out: Stat5 inhibition
Description: as §2
NK-92 cells were treated with compounds at the dosed indicated for 1 hour in incubator, followed by the IL-2 stimulation for 15 minutes. Cells were then collected and lysed to prepare the cellular extraction. Western blots were performed on cell lysate using Phospho-Jak3, Jak3, Phospho-Stat5, Stat5 antibodies (Cell Signaling Technology). The intensity of blotting band was acquired using Image Lab (Bio-Rad) software, and the IC50 of target was generated with GraphPad Prism.

[4] = target: T2, free Btk protein from Ramos cells (Homo sapiens, UniProt Q06187); experiment: Btk target site occupancy ELISA assay; conditions: 1 h, ELISA, read-out: Btk Occupancy Assay (IC50)
T2 construct: endogenous in cells; host or cells: Ramos cells (ATCC)
T2 sequence (Q06187 whole entry): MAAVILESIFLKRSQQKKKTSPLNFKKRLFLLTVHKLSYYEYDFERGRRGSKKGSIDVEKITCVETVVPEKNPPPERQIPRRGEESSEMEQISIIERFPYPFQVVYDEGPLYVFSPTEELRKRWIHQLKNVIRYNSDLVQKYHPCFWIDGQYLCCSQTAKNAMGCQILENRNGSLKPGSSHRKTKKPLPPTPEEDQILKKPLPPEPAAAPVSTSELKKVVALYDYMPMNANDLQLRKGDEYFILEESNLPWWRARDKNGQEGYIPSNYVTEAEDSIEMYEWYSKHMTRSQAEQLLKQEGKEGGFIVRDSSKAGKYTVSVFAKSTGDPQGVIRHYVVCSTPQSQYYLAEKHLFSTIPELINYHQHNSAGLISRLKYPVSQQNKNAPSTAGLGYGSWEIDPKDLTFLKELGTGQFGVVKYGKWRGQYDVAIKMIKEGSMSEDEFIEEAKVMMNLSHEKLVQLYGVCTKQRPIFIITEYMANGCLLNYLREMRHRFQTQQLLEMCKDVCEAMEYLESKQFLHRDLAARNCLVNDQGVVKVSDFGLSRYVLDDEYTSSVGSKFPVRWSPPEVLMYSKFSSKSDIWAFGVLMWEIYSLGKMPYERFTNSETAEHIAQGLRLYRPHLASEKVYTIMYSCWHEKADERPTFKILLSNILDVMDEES
Description: (§3) Ramos cells were treated with Compound I-1 at indicated concentrations for 1 h, followed by stimulation with 6 μg/mL of IgM for 30 mm, and then lysed. Lysates were incubated with Compound I-21 (biotin labeled) at a final concentration of 1 μM in a PBS, 0.05% Tween-20, 1% BSA solution while shaking for 1 h at room temperature. Samples were transferred to a streptavidin-coated 96-well ELISA plate and mixed while shaking for 1 h at room temperature. The Btk antibody (BD 611116, 1:1000 dilution in PBS+0.05% Tween-20+0.5% BSA) was then applied and incubated for 1 h at room temperature. After wash, goat anti-mouse-HRP (Pierce 31432, 1:1000 dilution in PBS+0.05% Tween-20+0.5% BSA) was added and incubated for 1 h at room temperature. The ELISA was developed with addition of tetramethyl benzidine (TMB) followed by Stop Solution and read at OD 450 nm.
as §3, with “Compounds” for “Compound I-1”, “anti-IgM” for “IgM”, “diluted” for “dilution”, “tetramethylbenzidine” for “tetramethyl benzidine”

T1 sequence (Q06187 whole entry): as above

SMILES	IC50 [1] [µM]	IC50 [2] [µM]	IC50 [3] [µM]	IC50 [4] [µM]
C=CC(=O)Nc1cccc(Nc2nc(Nc3ccc(N4CCN(CCF)CC4)cc3)ncc2OC)c1 [Compound I-5]	< 0.01	≤ 0.01	0.2 to 0.4	
C=CC(=O)Nc1cccc(Nc2nc(Nc3ccc(N4CCN(CCF)CC4)c(F)c3)ncc2OC)c1 [Compound I-7]	0.01 to 0.1	0.01 to 0.1	≥ 0.4	
C=CC(=O)Nc1cccc(Nc2nc(Nc3ccc(N[C@H]4CCN(CCF)C4)cc3)ncc2OC)c1 [Compound I-16, (S)—N-(3-(2-(4-(1-(2-fluoroethyl)pyrrolidin-3-ylamino)phenylamino)-5-methoxypyrimidin-4-ylamino)phenyl)acrylamide]	< 0.01	≤ 0.01	≥ 0.4	
C=CC(=O)Nc1cccc(Nc2nc(Nc3ccc(N[C@H]4CCN(CCF)C4)cc3)ncc2F)c1 [Compound I-15]	< 0.01	≤ 0.01	≥ 0.4	
C=CC(=O)Nc1cccc(Oc2nc(Nc3ccc(N(C)[C@H]4CCN(C(C)=O)C4)cc3)ncc2OC)c1 [Compound I-58a, (S)—N-(3-(2-(4-((1-acetylpyrrolidin-3-yl)(methyl)amino)phenylamino)-5-methoxypyrimidin-4-yloxy)phenyl)acrylamide]		≤ 0.01	≥ 0.4	≤ 0.01
C=CC(=O)Nc1cccc(Oc2nc(Nc3ccc(N4CCN(CCF)CC4)c(F)c3)ncc2OC)c1 [Compound I-3, N-(3-(2-(3-fluoro-4-(4-(2-fluoroethyl)piperazin-1-yl)phenylamino)-5-methoxypyrimidin-4-yloxy)phenyl)acrylamide]	< 0.01	≤ 0.01	0.2 to 0.4	
C=CC(=O)Nc1cccc(Oc2nc(Nc3ccc(OCCOC)cc3)nc3[nH]ccc23)c1 [Compound I-10, N-(3-(2-(4-(2-methoxyethoxy)phenylamino)-7H-pyrrolo[2,3-d]pyrimidin-4-yloxy)phenyl)acrylamide]	< 0.01	≤ 0.01	0.2 to 0.4	0.01 to 0.1
C=CC(=O)Nc1cccc(Oc2nc(Nc3ccc(N[C@H]4CCN(CCF)C4)cc3)ncc2OC)c1 [Compound I-13, (S)—N-(3-(2-(4-(1-(2-fluoroethyl)pyrrolidin-3-ylamino)phenylamino)-5-methoxypyrimidin-4-yloxy)phenyl)acrylamide]	< 0.01	≤ 0.01	≥ 0.4	≤ 0.01
C=CC(=O)Nc1cccc(Oc2nc(Nc3ccc(N[C@H]4CCN(CCF)C4)cc3)ncc2F)c1 [Compound I-20, (S)—N-(3-(5-fluoro-2-(4-(1-(2-fluoroethyl)pyrrolidin-3-ylamino)phenylamino)pyrimidin-4-yloxy)phenyl)acrylamide]		≤ 0.01		≤ 0.01
C=CC(=O)Nc1cccc(Oc2nc(Nc3ccc(N4CCN(CCF)CC4)cc3)ncc2F)c1 [Compound I-12]	0.01 to 0.1	0.01 to 0.1	0.2 to 0.4	
C=CC(=O)Nc1cccc(Oc2nc(Nc3ccc(N4CCN(CCF)CC4)c(F)c3)ncc2F)c1 [Compound I-8]	< 0.01			
C=CC(=O)Nc1cccc(Nc2nc(Nc3ccc(OCCOC)cc3)nc3[nH]ccc23)c1 [Compound I-11, N-(3-(2-(4-(2-methoxyethoxy)phenylamino)-7H-pyrrolo[2,3-d]pyrimidin-4-ylamino)phenyl)acrylamide]	0.01 to 0.1	0.01 to 0.1	≥ 0.4	
C=CC(=O)Nc1cccc(Oc2nc(Nc3ccc(N[C@@H]4CCN(CCF)C4)cc3)ncc2OC)c1 [Compound I-14, (R)—N-(3-(2-(4-(1-(2-fluoroethyl)pyrrolidin-3-ylamino)phenylamino)-5-methoxypyrimidin-4-yloxy)phenyl)acrylamide]	0.01 to 0.1	0.01 to 0.1	≥ 0.4	
C=CC(=O)Nc1cccc(Nc2nc(Nc3ccc(N[C@@H]4CCN(CCF)C4)cc3)ncc2F)c1 [Compound I-18]	< 0.01	≤ 0.01	0.2 to 0.4	
C=CC(=O)Nc1ccccc1Nc1nc(Nc2ccc(N3CCN(CCF)CC3)cc2)ncc1F [Compound I-6, N-(2-(5-fluoro-2-(4-(4-(2-fluoroethyl)piperazin-1-yl)phenylamino)pyrimidin-4-ylamino)phenyl)acrylamide]	< 0.01	≤ 0.01	0.2 to 0.4	
C=CC(=O)Nc1cccc(Nc2nc(Nc3ccc(N[C@@H]4CCN(CCF)C4)cc3)ncc2OC)c1 [Compound I-17, (R)—N-(3-(2-(4-(1-(2-fluoroethyl)pyrrolidin-3-ylamino)phenylamino)-5-methoxypyrimidin-4-ylamino)phenyl)acrylamide]	< 0.01	≤ 0.01	≥ 0.4	
C=CC(=O)Nc1cccc(Oc2nc(Nc3ccc(N4CCN(CCF)CC4)cc3)ncc2OC)c1 [Compound I-9]	< 0.01	≤ 0.01	0.2 to 0.4	
C=CC(=O)Nc1cccc(Nc2nc(Nc3ccc(N4CCN(CCF)CC4)c(F)c3)ncc2F)c1 [Compound I-4, N-(3-((5-fluoro-2-((3-fluoro-4-(4-(2-fluoroethyl)piperazin-1yl)phenyl)amino)pyrimidin-4-yl)amino)phenyl)acrylamide]	< 0.01	≤ 0.01	0.2 to 0.4	
